Tested on: KMS-12BM MM xenografts
Assay: In vivo antitumor efficacy against KMS-12BM MM xenografts
Parameters: species or system CIEA NOG mice
Settings: D14-25; for Antitumor efficacy (result in words): KMS-12BM xenografts, RG6146 30 mg/kg ip, venetoclax 100 mg/kg po, single agent or combination; for Tumor Regression (%) / npTCR and CI (non-parametric Treatment to Control Ratio) / TGI % (tumor growth inhibition): s.c. KMS-12BM human MM xenografts in female CIEA NOG mice, RG6146 30 mg/kg ip QD, venetoclax 100 mg/kg po QD, Day 25; for TGI % (tumor growth inhibition): compared to control
Description: The in vivo antitumor efficacy of BET inhibitor RG6146 in combination with Bcl-2 inhibitor venetoclax (GDC-0199) was evaluated against KMS-12BM MM xenografts.
BET inhibitor RG6146 was provided as a powder from Roche, Basel, Switzerland and resuspended prior to use. Bcl-2 inhibitor venetoclax was provided by Genentech, South San Francisco, USA and formulated prior to use.
The original KMS-12BM human Multiple Myeloma cell line (MM) was purchased from ATCC (Manassas, V., USA). Expansion of tumor cells for the transplantation was done by the TAP CompacT CellBase Cell Culture Roboter according to the protocol. Tumor cell line was routinely cultured in RPMI 1640 medium, FCS 10% and L-Glutamin 2 mM at 37° C. in a water-saturated atmosphere at 5% CO2. Culture passage was performed with trypsin/EDTA 1× splitting twice/week and passage 3 used for transplantation.
Female CIEA NOG mice (Taconic), age 5-7 weeks at arrival, maintained under specific-pathogen-free condition with daily cycles of 12 h light/12 h darkness according to committed guidelines. Experimental study protocol was reviewed and approved by local government. After arrival animals were maintained in animal facility for one week to get accustomed to new environment and for observation. Continuous health monitoring was carried out on regular basis. Diet food and autoclaved water were provided ad libitum.
Animals were controlled daily for clinical symptoms and detection of adverse effects. For monitoring throughout the experiment body weight of animals was documented.
Animal treatment started after randomisation when median tumor size was about 170 mm^3. The vehicle was administered ip once daily (QD) on D14-25. BET inhibitor RG6146 ip treatment at 30 mg/kg was done as single agent and in combination on D14-25. Finally, Bcl-2 inhibitor venetoclax was given orally at 100 mg/kg as single agent and in combination on D14-25.
KMS-12BM human MM cells were s.c. inoculated with Matrigel onto female CIEA-NOG mice. Tumor bearing mice were randomized 14 days later to the indicated study groups and compound treatment initiated. Tumor bearing animals were treated with vehicle control, with the BET inhibitor RG6146 at 30 mg/kg or with Bcl-2 inhibitor venetoclax at 100 mg/kg as single agent and in combination thereof.

Structure (SMILES)	Antitumor efficacy (result in words)	Tumor Regression (%)	npTCR and CI (non-parametric Treatment to Control Ratio)	TGI % (tumor growth inhibition)
CC1(C)CCC(CN2CCN(c3ccc(C(=O)NS(=O)(=O)c4ccc(NCC5CCOCC5)c([N+](=O)[O-])c4)c(Oc4cnc5[nH]ccc5c4)c3)CC2)=C(c2ccc(Cl)cc2)C1 [venetoclax, 4-(4-{[2-(4-chlorophenyl)-4,4-dimethylcyclohex-1-en-1-yl]methyl}piprazin-1-yl)-N-({3-nitro-4-[(tetrahydro-2H-pyran-4-ylmethyl)amino]phenyl}sulfonyl)-2-(1H-pyrrolo[2,3-b]pyridin-5-yloxy)benzamide]	weaker activity	0%	0.55	49%
Cc1sc2c(c1C)C(c1ccc(Cl)cc1)=N[C@@H](CC(=O)NCCCN1CCN(C)CC1)c1nnc(C)n1-2 [RG6146, 2-[(S)-4-(4-Chloro-phenyl)-2,3,9-trimethyl-6H-1-thia-5,7,8,9a-tetraaza-cyclopenta[e]azulen-6-yl]-N-[3-(4-methyl-piperazin-1-yl)-propyl]-acetamide]	nearly tumor stasis	0%	0.06	94%

— patent US20200237779A1, “COMBINATION THERAPY WITH A BET INHIBITOR AND A BCL-2 INHIBITOR” (Hoffmann-La Roche Inc., priority 2017, published 2020)
